Tests used:
[1] = test system: P. berghei liver stage schizonts; assay: microbe, parasite or virus in culture; type: cell-based; details: Plasmodium berghei, HepG2, 44 h, read-out: High Content Imaging (pEC50 ± SD) (converted)
Experimental: (§1) HepG2 seeding (1.75 × 10^4 cells/well), salivary gland dissection, sporozoite quantification, and sporozoite dilution were performed as described above. To test the titration of sporozoite in dose–response format with MMV390048, 20 µL of a 25 sporozoite/μL solution in HepG2 media was added to columns 1–8 of 384-well plates (inoculum of 500 sporozoites/well), 20 μL of 50 sporozoites/μL was added into columns 9–16 (inoculum of 1000 sporozoites/well), and 20 μL of 100 sporozoites/μL was added into columns 17–24 (inoculum of 2000 sporozoites/well). To test legacy anti-malarials, two independent experiments were performed for each endpoint (FLAR or HCI), each with an independent production run of P. berghei sporozoites. […] Infected plates were spun for 5 min at 200 RCF and kept for 3 h at 37 °C and 5% CO2 prior to compound treatment.
(§2) Compound treatment was performed as previously described. Dose–response source plates containing 5 μL of 1000 × test compounds in a serial dilution in DMSO were prepared in low volume 384-well plates using a Biomek 4000 (Beckman Coulter). Assay plates were treated by transferring 40 nL from screening or dose–response source plates using a pin tool (V&P Scientific) affixed to a Biomek NXp, resulting in a final test concentration of 1 × in media.
After 44 h, dose–response plates designated for the FLAR endpoint underwent the freeze/thaw lysis method before detection with 1 × FLAR completed with 1 × D-luciferin and ATP endpoint described above. Plates designated for the HCI endpoint were fixed with 4% paraformaldehyde (Thermo Scientific, cat 043368.9 M) in PBS for 20 min. Following fixation, the plate was washed twice by adding and then dumping 20 µL of PBS/well. Plates were then stained with 50 ng/mL of mouse anti-Plasmodium glyceraldehyde 3-phosphate dehydrogenase (GAPDH) (European Malaria Reagent Repository, cat 13.3) diluted in a 0.3% Triton X and 1% BSA permeabilization and blocking stain buffer overnight at 4 °C. Following three washes with PBS, plates were stained with 2 µg/mL of goat anti-mouse AlexaFluor 488 (Invitrogen, cat A11001) diluted in stain buffer and again incubated overnight at 4 °C. Following three washes with PBS, plates were counterstained with 10 µg/mL Hoechst 33342 (Invitrogen, cat H21492) for 30 min before two washes. Plates were imaged on an ImageXpress Micro Confocal high content system (Molecular Devices). Raw values (either parasite growth area for HCI or Relative Light Units (RLU) for FLAR) were normalized to the positive (MMV390048) or negative (DMSO) controls using the equation: %Inhibition=100×RawData-AverageNegativeControl/AveragePositiveControl-AverageNegativeControl and curve fitting was performed with CDD Vault using the Levenberg–Marquardt algorithm. Potency data from all plates were collected, visualized, and analysed using GraphPad Prism (Version 10.0.3). Potency values for legacy anti-malarials obtained from our FLAR endpoint were compared to those previously reported from a 1536-well plate format using a Bright-Glo™ luciferase detection protocol.

[2] = test system: luciferase-expressing P. berghei liver stage schizonts; assay: P. berghei liver stage dose-response assay in HepG2, FLAR luciferase endpoint (legacy anti-malarials); type: cell-based; details: Plasmodium berghei, HepG2, 44 h, read-out: FLAR (pEC50 ± SD) (converted)
Experimental: All stock reagents were stored at 4 °C, except D-luciferin, ATP, and DTT which were aliquoted and stored at − 20 °C. Tricine, MgSO4, and MgCO3 stocks were all adjusted to have a pH of 7.8.
as §1, with “To” for “HepG2 seeding (1.75 × 10^4 cells/well), salivary gland dissection, sporozoite quantification, and sporozoite dilution were performed as described above. To”
as §2
After 44 h, dose–response plates designated for the FLAR endpoint underwent the freeze/thaw lysis method before detection with 1 × FLAR completed with 1 × D-luciferin and ATP endpoint described above. […] Following fixation, the plate was washed twice by adding and then dumping 20 µL of PBS/well. […] Plates were imaged on an ImageXpress Micro Confocal high content system (Molecular Devices). Raw values (either parasite growth area for HCI or Relative Light Units (RLU) for FLAR) were normalized to the positive (MMV390048) or negative (DMSO) controls using the equation: %Inhibition=100×RawData-AverageNegativeControl/AveragePositiveControl-AverageNegativeControl and curve fitting was performed with CDD Vault using the Levenberg–Marquardt algorithm. Potency data from all plates were collected, visualized, and analysed using GraphPad Prism (Version 10.0.3). Potency values for legacy anti-malarials obtained from our FLAR endpoint were compared to those previously reported from a 1536-well plate format using a Bright-Glo™ luciferase detection protocol.

HepG2 cells = assay: HepG2 cytotoxicity assay in galactose media, 72 h, hepatic nuclei count by HCI; type: cell-based, Homo sapiens
Experimental: To assess the general cytotoxicity of GHPB compounds, HepG2 cells were cultured in media containing galactose instead of glucose to avoid false negatives due to the Crabtree effect. Following propagation of HepG2 in T-75 flasks with glucose-containing media as above, media was aspirated, the cell monolayer was washed with PBS, and then cells were trypsinized as above. Released cells were then resuspended in media containing glucose-free DMEM (Gibco, cat 11,966–025) supplemented with 10% FBS (Corning, cat 35–016-CV), 10 mM galactose (Sigma, cat G5388), 1 mM sodium pyruvate (Corning, cat 25–000-CI), 1 × penicillin–streptomycin-neomycin mix (Gibco, cat 15,640–055), and 2 mM L-glutamine (Gibco, cat 25,030–081). The cell density was calculated using trypan blue exclusion on a haemocytometer, diluted to 50 cells/µL, and 40 µL of cells were seeded into collagen-coated 384-well plates (Greiner Bio-One, cat 781,956) using a Biomek NXp (Beckman Coulter), resulting in 2 × 10^3 cells/well. The day after seeding, plates were treated with a pin tool as above and cultured for 72 h. Plates were then fixed with 4% paraformaldehyde, stained with 10 µg/mL Hoechst 33,342, and imaged on an ImageXpress Micro Confocal. Hepatic nuclei were quantified using MetaXpress (Molecular Devices) image analysis software. Both P. berghei liver schizont and HepG2 cytotoxicity data were loaded into CDD Vault for normalization and hit selection as described above. A total of 35 compounds were identified for resupply of fresh powder for confirmation in dose–response assays. […] Powders were diluted to 50 mM in DMSO and plated in 1000 × source plates as described above. […] Separately, two independent runs of the HepG2 cultured in galactose, assayed as described above, were used to assess the cytotoxicity potency and selectivity indices for these compounds. […] Receiver-operator characteristic (ROC) curves were generated using Graphpad Prism and area under the curve (AUC) was calculated using the Wilson/Brown method for both P. berghei liver schizont activity and HepG2 cytotoxicity.

[3] = test system: P. berghei liver schizonts; assay: GHPB single point primary screen, FLAR luciferase endpoint; type: cell-based, Plasmodium berghei; details: 1 µM; hit = > 80% inhibition of P. berghei and < 15% inhibition of HepG2
Experimental: The GHPB is an open-access collection of compounds (80 for vector control, 80 for zoonotic and neglected diseases, 80 for drug resistant malaria) obtained from MMV. The library was supplied in a 96-well microtitre plate and moved into a low-volume 384-well plate (Greiner Bio-One, cat 784,261) using a Biomek NXp to transfer 5 μL of 1 mM compound into the destination wells. MMV390048 (1 µM) was used for the positive control wells and DMSO (0.1% v/v) was used for the negative control wells. The GHPB was screened by seeding 5 × 10^3 cells/well which, after 24 h, were infected with a maximum available inoculum of 1.44 × 10^3 sporozoites/well. Three hours post-infection, plates were treated with a pin tool as described above. After 44 h, media was dumped from the plate, lysed using the freeze/thaw method, and luciferase signal was detected with 1 × FLAR as described above.

[4] = test system: P. berghei liver schizonts; assay: GHPB dose-response confirmation, FLAR luciferase endpoint; type: cell-based, Plasmodium berghei; details: grouped as selectively active, active but with low selectivity, nonselective or inactive
Experimental: A total of 35 compounds were identified for resupply of fresh powder for confirmation in dose–response assays. […] Powders were diluted to 50 mM in DMSO and plated in 1000 × source plates as described above. MMV390048 and puromycin were plated as the positive control for P. berghei liver schizont activity and cytotoxicity, respectively. Two independent experiments using 1 × FLAR and 5 × 10^3 cells/well were performed to assess the potency of these compounds against P. berghei liver schizonts, each with an independent production run of P. berghei sporozoites. […] Separately, two independent runs of the HepG2 cultured in galactose, assayed as described above, were used to assess the cytotoxicity potency and selectivity indices for these compounds. Both P. berghei liver schizont and HepG2 cytotoxicity data were loaded into CDD Vault for normalization, curve fitting, and EC50 calculations as described above. Receiver-operator characteristic (ROC) curves were generated using Graphpad Prism and area under the curve (AUC) was calculated using the Wilson/Brown method for both P. berghei liver schizont activity and HepG2 cytotoxicity.

Structure (SMILES)	EC50 [1] [nM]	EC50 [2] [nM]	HepG2 Cytotoxicity (pEC50 ± SD) (HepG2 cells)	activity and selectivity in the primary screens [3]	Activity (grouping in dose-response confirmation runs) [4]
c1cc([C@H]2CC[C@]3(CC2)OO[C@]2(O3)C3CC4CC(C3)CC2C4)ccc1OCCN1CCOCC1 [Artefenomel (OZ439), Artefenomel]	> 1230	> 28800			
CO[C@H]1O[C@@H]2O[C@@]3(C)CC[C@H]4[C@H](C)CC[C@@H]([C@H]1C)[C@@]24OO3 [Artemether]	> 37200	> 1070			
C[C@@H]1CC[C@H]2[C@@H](C)C(=O)O[C@@H]3O[C@@]4(C)CC[C@@H]1[C@]32OO4 [Artemisinin]	> 50100	> 50100			
C[C@H]1[C@@H](O)O[C@@H]2O[C@@]3(C)CC[C@H]4[C@H](C)CC[C@@H]1[C@@]24OO3 [Artenimol (DHA), dihydroartemisinin]	> 10000	> 10000			
CC(C)(N)CNC(=O)C[C@H]1CC[C@]2(CC1)OO[C@]1(O2)C2CC3CC(C2)CC1C3 [Arterolane (OZ277), Arterolane]	> 3020	> 10000			
C[C@H]1[C@H](OC(=O)CCC(=O)O)O[C@@H]2O[C@@]3(C)CC[C@H]4[C@H](C)CC[C@@H]1[C@@]24OO3 [Artesunate]	> 16600	> 16600			
O=C1C(O)=C([C@H]2CC[C@H](c3ccc(Cl)cc3)CC2)C(=O)c2ccccc21 [Atovaquone]	17	21.4			
CC[C@H]1OC(=O)[C@H](C)[C@@H](O[C@H]2C[C@@](C)(OC)[C@@H](O)[C@H](C)O2)[C@H](C)[C@@H](O[C@@H]2O[C@H](C)C[C@H](N(C)C)[C@H]2O)[C@](C)(O)C[C@@H](C)CN(C)[C@H](C)[C@@H](O)[C@]1(C)O [Azithromycin]	> 10000	> 10000			
CCN(CC)CCCC(C)Nc1ccnc2cc(Cl)ccc12 (centres unmarked) [Chloroquine]	> 10000	> 10000			
C[C@H]1Cc2c([nH]c3cc(Cl)c(F)cc23)[C@@]2(N1)C(=O)Nc1ccc(Cl)cc12 [Cipargamin]	9.55	10.2			
Cc1cc(Nc2ccc(S(F)(F)(F)(F)F)cc2)n2nc(C(C)(F)F)nc2n1 [DSM265]	11.2	16.6			
CCCCN(CCCC)CC(O)c1cc(Cl)cc2c1-c1ccc(Cl)cc1/C2=C/c1ccc(Cl)cc1 (centres unmarked) [Lumefantrine]	> 5750	> 5750			
CCOc1ccccc1NC(=O)Cn1c(=O)n(Cc2ccccc2)c(=O)c2c(C)c(C(=O)N(C)C)sc21 [MMV006430]			4.94 ± 0.06		
CS(=O)(=O)c1ccc(-c2cnc(N)c(-c3ccc(C(F)(F)F)nc3)c2)cc1 [MMV390048]	63.1	64.6			
O=C(Nc1ncccc1O)c1ccc(N2CCOCC2)nc1 [MMV1103183]			5.03 ± 0.02	active and selective	active and selective
CN(C)c1ccc2nc3ccc(=[N+](C)C)cc-3sc2c1 [Methylene Blue]	295	219			
Clc1ccc2c(N3CCN(CCCN4CCN(c5ccnc6cc(Cl)ccc56)CC4)CC3)ccnc2c1 [Piperaquine]	> 5750	> 5250			
COc1cc(NC(C)CCCN)c2ncccc2c1 (centres unmarked) [Primaquine]	> 10000	> 5370			
CCc1nc(N)nc(N)c1-c1ccc(Cl)cc1 [Pyrimethamine]	19.5	33.9			
COc1ncnc(NS(=O)(=O)c2ccc(N)cc2)c1OC [Sulfadoxine]	> 10000	> 10000			
COc1cc(C)c2c(Oc3cccc(C(F)(F)F)c3)c(OC)cc(NC(C)CCCN)c2n1 (centres unmarked) [Tafenoquine]	> 3390	> 1580			
COc1cc(Cc2cnc(N)nc2N)cc(OC)c1OC [Trimethoprim]	1740	1290			

Reference: article PMC11585928, “Screening the Global Health Priority Box against Plasmodium berghei liver stage parasites using an inexpensive luciferase detection protocol” (Malaria Journal, 2024)
